The target of one data set is T1, FLT3 (Homo sapiens, UniProt P36888).
T1 construct: Reaction Biology Corporation (contract assay)
T1 sequence (P36888 27-993): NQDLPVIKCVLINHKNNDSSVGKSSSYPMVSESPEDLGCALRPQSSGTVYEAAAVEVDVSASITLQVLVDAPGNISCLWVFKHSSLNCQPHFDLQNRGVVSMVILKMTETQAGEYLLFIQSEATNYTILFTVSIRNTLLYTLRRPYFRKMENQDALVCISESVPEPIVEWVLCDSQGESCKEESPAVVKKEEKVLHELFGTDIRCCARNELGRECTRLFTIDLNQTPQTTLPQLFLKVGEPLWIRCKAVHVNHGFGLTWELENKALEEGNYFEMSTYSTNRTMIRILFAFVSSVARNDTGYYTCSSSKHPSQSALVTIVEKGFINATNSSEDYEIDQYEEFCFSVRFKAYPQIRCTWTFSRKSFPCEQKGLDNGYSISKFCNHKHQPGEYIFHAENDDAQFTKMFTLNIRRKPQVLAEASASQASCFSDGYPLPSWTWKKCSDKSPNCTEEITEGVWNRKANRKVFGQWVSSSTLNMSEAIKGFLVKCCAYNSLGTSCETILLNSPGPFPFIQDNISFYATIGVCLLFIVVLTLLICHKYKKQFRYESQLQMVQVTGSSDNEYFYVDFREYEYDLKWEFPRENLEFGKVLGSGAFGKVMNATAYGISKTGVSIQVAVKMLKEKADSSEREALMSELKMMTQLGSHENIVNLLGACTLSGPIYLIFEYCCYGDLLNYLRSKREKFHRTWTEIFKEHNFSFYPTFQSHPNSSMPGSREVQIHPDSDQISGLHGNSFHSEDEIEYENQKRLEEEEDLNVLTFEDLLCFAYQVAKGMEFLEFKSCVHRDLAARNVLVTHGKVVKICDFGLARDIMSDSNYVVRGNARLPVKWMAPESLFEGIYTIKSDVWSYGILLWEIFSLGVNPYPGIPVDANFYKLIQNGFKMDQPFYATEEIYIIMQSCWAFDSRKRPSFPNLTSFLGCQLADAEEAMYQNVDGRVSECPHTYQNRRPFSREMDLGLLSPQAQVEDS
Briefly: In vitro kinase assay, FLT3 (Reaction Biology Corporation). Type of data set: biochemical. The conditions noted are these: 10 μM ATP; read-out: FLT3 IC50. The protocol: Compounds were tested in 10-dose IC50 mode with 3-fold serial dilution starting at 50 μM. […] Reactions were carried out at 10 μM ATP. Average and standard deviations of reactions carried out in triplicate are shown.
In vitro kinase assay to detect CK1 or FLT3 activity: CK1 and FLT3 assays as well as complete kinase profile of 296 kinases was performed by Reaction Biology Corporation. For FLT3 20 μM final Abltide was used, sequence: [[…]]. For CK1 (all isoforms) 20 μM CK1 tide was used, sequence: [KRRRAL[pS]VASLPGL] in a standard kinase assay with ^32P-ATP and purified kinase. Incorporation of ^32P-ATP into the peptide was measured after a filter-binding assay. In-house CK1d inhibition assays were performed using a standard homogenous time-resolved fluorescence resonance energy transfer (TR-FRET) format in 50 mM Hepes, pH 7.0, 2.5 mM MgCl2, 0.1 mg/ml bovine serum albumin, 1 mM DL-dithiothreitol, 0.01% Triton X-100 (all from Sigma-Aldrich). Briefly, the CK1δ substrate (DEKTDDE, containing CK1 consensus sequence; 4 μL of a 500 nM stock solution) is labeled with a small Ulight acceptor dye (PerkinElmer). In the presence of 10 μL of 10 nM CK1δ, the Ulight peptide is phosphorylated at a single amino acid that is specifically recognized by a europium chelate (Eu)-labeled phosphospecific antibody. Assays were performed in the presence of 2 μL of compound at different (measured) concentrations, and reactions were stopped by adding 10 μL of 4 nM Eu-anti-p-Topo-IIa (PerkinElmer) in Lance Detection Buffer (Perkin Elmer). Upon excitation of the Eu-labeled antibody, energy is transferred to the acceptor dye resulting in the emission of detected light at 665 nm.

For the next data set, the system named is A498 (renal). Briefly: NCI Dose Growth Inhibition assay (NCI-60). Type of data set: cell-based. The conditions noted are these: Homo sapiens. The protocol:
(§1) Table 3, below, illustrates the activity of some of the compounds of the present invention in the National Cancer Institute's Dose Growth Inhibition assay against several human tumor cell lines selected from the NCI-60 panel.
(§2) NCI-60 Cancer Cell Line Screening was performed by the National Cancer Institute, using the procedures described on their website (http://dtp.nci.nih.gov/branches/btb/ivelsp.html)

In another data set the test system is COLO 205 (colon). Description: NCI Dose Growth Inhibition assay (NCI-60). Particulars: Homo sapiens. Type of data set: cell-based. On the procedure:
as §1, §2

A further data set deals with MDA-MB-468 (breast). Description: NCI Dose Growth Inhibition assay (NCI-60). It counts as cell-based. Particulars: Homo sapiens. The protocol: as §1, §2
The test system of another data set is RXF393 (renal). Description: NCI Dose Growth Inhibition assay (NCI-60). It counts as cell-based. The conditions noted are these: Homo sapiens, RXF 393. The protocol: as §1, §2
For another data set, the system named is SNB-75 (CNS). Briefly: NCI Dose Growth Inhibition assay (NCI-60). It counts as cell-based. Particulars: Homo sapiens. The protocol: as §1, §2
Another data set relates to UACC-62 (melanoma). Description: NCI Dose Growth Inhibition assay (NCI-60). It counts as cell-based. Particulars: Homo sapiens. On the procedure: as §1, §2
Another data set relates to HeLa cells. Description: Cell viability, ATP content (Cell-Titer Glo). The conditions noted are these: 24 hours, result in words. It counts as cell-based. The source says:
Error bars represent the standard deviation of three separate experiments.

The next data set deals with 296 kinases. Description: Kinase profile of 296 kinases (Reaction Biology Corporation). It counts as biochemical. Particulars: result in words.
Another data set concerns cyclin dependent kinases. Description: Kinase activity, cyclin dependent kinases. It counts as biochemical. The conditions noted are these: result in words. The source says:
CNS neurogenesis requires Cdk1 activity regulated by the phosphatase Cdc25 and the tyrosine kinase Wee1[1]. Cdk1 activity decreases in normal adult neurons and is reactivated in neurological diseases such as Alzheimer's[2]. A major mechanism controlling Cdk1 activity in neurons is Wee1 degradation via the ubiquitin proteasome pathway. It was sought to identify pathways controlling neuronal Wee1 degradation using cerebellar granule cells and a reporter of Wee1 turnover, K328M-Wee1-Luciferase[4].

The test system of the next data set is Luciferase. Description: Luciferase alone control (PGL3 vector). It counts as cell-based. The conditions noted are these: HeLa cells, cycloheximide, 5 μM; result in words. The protocol: (§3) The percentage of signal relative to the proteasome inhibitor MG132 is shown. […] A Western blot is shown of endogenous Wee1 or Skp1 (loading control) of HeLa cells incubated with 5 μM of indicated compounds for 24 hours. […] The 0 time point was set to 100%. […] The extent of degradation was measured as in FIG. D.
5 μM of indicated compounds were incubated with K328M-Wee1-Luciferase or Luciferase expressing HeLa cells and the extent of stabilization measured after adding Brite-lite. MG132 was used as a positive control.
Similar assays have previously been described; PubChem AID 1807.

Another data set deals with K328M-Wee1-luciferase. Description: K328M-Wee1-luciferase degradation with cycloheximide. The conditions noted are these: HeLa cells, 5 μM, result in words. It counts as cell-based. The protocol: as §3

Molecules are shown by their SMILES. Several values for one entry are separate records, joined by “and”; a condition that tells them apart may be missing. Equal values may be shown once. Entries after “also recorded” stand apart in the source; their conditions may differ. Read-outs that look alike come from different tables or passages of the source. Where only a bound is given, the exact number is not on record here.

Regarding `O=[N+]([O-])c1cccc2[nH]c(CNc3nc(N4CCOCC4)nc4c3ncn4-c3ccsc3)nc12` [SR-1277], the IC50 on FLT3 amounted to 0.305 µM. For the same compound, the concentration for 50% growth inhibition (GI50) was 0.017 µM in the data set with A498 (renal) (A498); 0.015 µM with COLO 205 (colon) (COLO 205); < 0.01 µM with MDA-MB-468 (breast) (MDA-MB-468); < 0.01 µM in the data set on RXF393 (renal); < 0.01 µM in the data set with SNB-75 (CNS) (SNB-75); 0.014 µM with UACC-62 (melanoma) (UACC-62). Also, the cell viability result in the data set with HeLa cells is given as “not affected”.

As for `c1ccc2[nH]c(CNc3nc(N4CCOCC4)nc4c3ncn4-c3ccsc3)nc2c1` [SR-653234], the IC50 on FLT3 is 0.161 µM and 0.1 µM. Further, the GI50 with A498 (renal) (A498 (renal), read-out: GI50) turned out to be 0.072 µM; in the data set on COLO 205 (colon) (COLO 205 (colon), read-out: GI50), 0.026 µM; with MDA-MB-468 (breast) (MDA-MB-468 (breast), read-out: GI50) it was 0.016 µM; in the data set with RXF393 (renal) (RXF393 (renal), read-out: GI50) it was 0.026 µM; in the data set with SNB-75 (CNS) (SNB-75 (CNS), read-out: GI50) it was 0.025 µM; in the data set on UACC-62 (melanoma) (UACC-62 (melanoma), read-out: GI50), 0.068 µM. Also, in the data set with HeLa cells, the cell viability entry is “without affecting cell viability; also recorded: not affected”. In addition, the “selectivity among 296 kinases” value in the data set on 296 kinases is “highly selective for casein kinase”. Besides, in the data set on cyclin dependent kinases, the “activity toward cyclin dependent kinases” value was “does not show any appreciable activity”. In the data set on Luciferase, the luciferase degradation result is “does not affect luciferase degradation”. Moreover, the K328M-Wee1-luciferase degradation result with K328M-Wee1-luciferase is reported as “inhibited degradation of K328M-Wee1-luciferase; also recorded: inhibits K328M-Wee1-luciferase degradation”.

These data come from US9493464B2, “Wee1 degradation inhibitors” (The Scripps Research Institute, priority 2012, dated 2016).
